Measurements from the NIST ThermoML archive (doi:10.1021/acs.jced.8b00298).
± gives the expanded uncertainty stated by the source.

Details: Liquid
[1] = Visual observation in an unstirred cell

Critical molar volume (Visual) [m3/mol] | Critical pressure (Visual) [kPa] | Critical temperature [1] [K] | Critical pressure (Capillary flow) [kPa] | Critical temperature (Capillary flow) [K] | Structure (SMILES)
0.00044 ± 2e-05 | 3080 ± 30 | 596.3 ± 0.3 | – | – | C[C@@H]1CCCC[C@H]1C (relative stereo) [trans-1,2-dimethylcyclohexane]
0.0005 ± 2e-05 | 2770 ± 30 | 646.9 ± 0.2 | – | – | CC(C)(C)C1CCCCC1 [1,1-dimethylethylcyclohexane]
0.00031 ± 2e-05 | 3830 ± 40 | 535.32 ± 0.24 | – | – | COCCOC [1,2-dimethoxyethane]
– | – | – | 4000 ± 240 | 800.3 ± 4 | OCC1CCC(CO)CC1 (configuration not stated) [1,4-bis(hydroxymethyl)cyclohexane]
– | – | – | 4210 ± 90 | 584 ± 2 | COCC(C)=O [1-methoxy-2-propanone]
– | – | – | 2600 ± 80 | 611.7 ± 2.4 | CCC(=O)OC(C)COC (configuration not stated) [1-methoxypropan-2-yl propionate]
– | – | – | 3630 | 549.8 ± 2 | C=C(C)OC(C)=O [1-methylvinyl ethanoate]
– | – | – | 3110 ± 140 | 708.2 ± 3.2 | CC(C)C(O)C(C)(C)CO (configuration not stated) [2,2,4-trimethyl-1,3-pentanediol]
– | – | – | 2730 ± 120 | 550.7 ± 4 | C=C(C)CC(C)(C)C [2,4,4-trimethyl-1-pentene]
– | – | – | 1980 ± 120 | 726.6 ± 4 | COCCOCCOCCOCCOC [2,5,8,11,14-pentaoxapentadecane]
– | – | – | 2310 ± 60 | 681.2 ± 2.4 | COCCOCCOCCOC [2,5,8,11-tetraoxadodecane]
– | – | – | 2830 ± 120 | 619.7 ± 4 | COCCOCCOC [2,5,8-trioxanonane]
– | – | – | 657 ± 67 | 805 ± 20 | CC(C)CCCC(C)CCCC(C)CCCCC(C)CCCC(C)CCCC(C)C (configuration not stated) [2,6,10,15,19,23-hexamethyltetracosane]
– | – | – | 4200 ± 110 | 598.9 ± 4 | CCOCCO [2-ethoxyethan-1-ol]
– | – | – | 4310 ± 140 | 596.6 ± 3 | COC(C)CO (configuration not stated) [2-methoxy-1-propanol]
– | – | – | 4210 ± 140 | 519 ± 3 | CC(C)C=O [2-methylpropanal]
– | – | – | 4620 ± 140 | 602 ± 2 | Cc1cccs1 [2-methylthiophene]
– | – | – | 4300 ± 260 | 511.6 ± 5.6 | COC(C)OC [3-methyl-2,4-dioxapentane]
– | – | – | 4620 ± 140 | 607.3 ± 3 | Cc1ccsc1 [3-methylthiophene]
– | – | – | 3920 ± 90 | 715.8 ± 4 | Cc1ccc(C=O)cc1 [4-methylbenzaldehyde]
0.00048 ± 2e-05 | 2900 ± 30 | 646.9 ± 0.2 | – | – | CC(C)(C)c1ccccc1 [(1,1-dimethylethyl)benzene]
0.00048 ± 2e-05 | 2940 ± 30 | 635.3 ± 0.2 | – | – | CC(C)C1CCCCC1 [(1-methylethyl)cyclohexane]
0.00048 ± 2e-05 | 3030 ± 30 | 653 ± 0.2 | – | – | CCC(C)c1ccccc1 (configuration not stated) [(1-methylpropyl)benzene]
– | – | – | 4260 ± 120 | 660.2 ± 2.6 | CC(=O)N(C)C [N,N-dimethylethanamide]
– | – | – | 3980 ± 480 | 760 ± 12 | OCCN1CCNCC1 [N-(2-hydroxyethyl)piperazine]
– | – | – | 5090 ± 200 | 707.4 ± 2 | CNC(C)=O [N-methylacetamide]

Critical molar volume (Visual) [m3/mol] | Critical pressure (Visual) [kPa] | Critical temperature [1] [K] | Critical pressure (Capillary flow) [kPa] | Critical temperature (Capillary flow) [K] | Structure (SMILES)
– | – | – | 6080 ± 260 | 715.6 ± 4 | CNC=O [N-methylformamide]
– | – | – | 3660 ± 160 | 581.5 ± 3.6 | CN1CCCCC1 [N-methylpiperidine]
– | – | – | 4210 ± 140 | 587.4 ± 3 | Cn1cccc1 [N-methylpyrrole]
0.0003 ± 2e-05 | 4000 ± 40 | 548.62 ± 0.24 | – | – | CN1CCCC1 [N-methylpyrrolidine]
– | – | – | 2520 ± 120 | 615.8 ± 4 | C=C(C)C(=O)OCCCC [butyl 2-methyl-2-propenoate]
0.00056 ± 2e-05 | 2510 ± 30 | 649.3 ± 0.2 | – | – | CCCCC1CCCCC1 [butylcyclohexane]
0.00041 ± 2e-05 | 3350 ± 30 | 607.29 ± 0.24 | – | – | C[C@@H]1CCCC[C@@H]1C [cis-1,2-dimethylcyclohexane]
0.00043 ± 2e-05 | 3040 ± 30 | 586.1 ± 0.2 | – | – | C[C@@H]1CCC[C@H](C)C1 [cis-1,3-dimethylcyclohexane]
– | – | – | 3970 ± 160 | 669.6 ± 4 | SC1CCCCC1 [cyclohexanethiol]
– | – | – | 3080 ± 120 | 578.2 ± 3 | CCOC(=O)OCC [diethyl carbonate]
– | – | – | 1763 ± 110 | 663 ± 3 | CCCCCCOCCCCCC [dihexyl ether]
– | – | – | 4550 ± 280 | 488.9 ± 3.2 | COCOC [dimethoxymethane]
– | – | – | 2760 ± 400 | 779 ± 20 | COC(=O)c1ccc(C(=O)OC)cc1 [dimethyl 1,4-benzenedicarboxylate]
– | – | – | 4450 ± 130 | 556.3 ± 3 | COC(=O)OC [dimethyl carbonate]
– | – | – | 4720 ± 140 | 650.6 ± 3 | CN(C)C=O [dimethylformamide]
– | – | – | 1446 ± 85 | 727 ± 4 | CCCCCCCCOCCCCCCCC [dioctyl ether]
– | – | – | 2920 ± 60 | 770 ± 2 | c1ccc(Cc2ccccc2)cc1 [diphenylmethane]
– | – | – | 3170 ± 120 | 572 ± 3 | C=C(C)C(=O)OCC [ethyl 2-methylpropenoate]
0.00043 ± 2e-05 | 3110 ± 30 | 605.9 ± 0.2 | – | – | CCC1CCCCC1 [ethylcyclohexane]
– | – | – | 5280 ± 800 | 786 ± 10 | O=C1OCCO1 [ethylene carbonate]
– | – | – | 3080 ± 100 | 654.9 ± 3 | CC(=O)OCCOC(C)=O [ethylene diacetate]
– | – | – | 3830 ± 140 | 652.8 ± 4 | COC(=O)CC(C)=O [methyl 3-oxobutanoate]
– | – | – | 3750 ± 100 | 557.9 ± 1.6 | C=C(C)C(=O)OC [methyl methacrylate]
– | – | – | 6300 ± 170 | 633.3 ± 3 | c1cc[nH]c1 [pyrrole]
– | – | – | 5430 ± 300 | 634.6 ± 6 | C1CCSC1 [tetrahydrothiophene]
0.00042 ± 2e-05 | 3060 ± 30 | 585.84 ± 0.24 | – | – | C[C@H]1CC[C@H](C)CC1 [trans-1,4-dimethylcyclohexane]

Structure (SMILES) | Critical molar volume (Visual) [m3/mol] | Critical pressure (Visual) [kPa] | Critical temperature [1] [K] | Critical pressure (Capillary flow) [kPa] | Critical temperature (Capillary flow) [K]
C=CC(=O)OCC(CC)CCCC (configuration not stated) [2-ethylhexyl 2-propenoate] | – | – | – | 2080 ± 140 | 672.5 ± 6
CC(C)C#N [2-methylpropanenitrile] | – | – | – | 3672 ± 150 | 560.8 ± 2
OCCOc1ccccc1 [2-phenoxyethanol] | – | – | – | 3860 ± 120 | 749.4 ± 2
O=C1CCCN1 [2-pyrrolidinone] | – | – | – | 5590 ± 220 | 789.1 ± 3.6
COCCC#N [3-methoxypropanenitrile] | – | – | – | 4040 ± 120 | 650.9 ± 2.4
CCN(CC)CCO [(diethylamino)ethanol] | – | – | – | 3247 ± 130 | 625.9 ± 4
Sc1ccccc1 [benzenethiol] | – | – | – | 4650 ± 180 | 689.2 ± 4
CCCCc1ccccc1 [butylbenzene] | 0.0005 ± 2e-05 | 2890 ± 30 | 660.3 ± 0.2 | – | –
S=C=S [carbon disulfide] | 0.000176 ± 9e-06 | 7330 ± 60 | 552.5 ± 0.2 | – | –
C=CC(=O)OCC [ethyl propenoate] | – | – | – | 3710 ± 100 | 555.2 ± 2
C=CC(=O)OC [methyl propenoate] | – | – | – | 3990 ± 140 | 532.7 ± 2.6
C1CCNCC1 [piperidine] | – | – | – | 4560 ± 140 | 594.4 ± 3
